For data set [1] the following is noted: mammals; cited from earlier work.
The conditions of data set [2]: used to chemically lower core body temperature; cited from earlier work.
For data set [3], the system named is RBM3. The data set can be described thus: RBM3 protein levels by Western blot in drug-treated primary cortical neurons at 37° C. or 36° C. The format is cell-based, rat. The settings on record: for RBM3 levels: 24 h treatment; for RBM3 protein expression: DIV7 neurons cultured at 37° C., 24 h treatment with increasing dose. The procedure:
Primary Cortical Neuron Culture. Embryos (mixed gender) were isolated from timed pregnant (E16-17) Sprague Dawley rats. Neuron cultures were performed as previously described (Jackson TC, et al. (2013) Pharmacological inhibition of pleckstrin homology domain leucine-rich repeat protein phosphatase is neuroprotective: differential effects on astrocytes. J Pharmacol Exp Ther 347:516-528). Cortices were dissected in ice-cold Hanks balanced salt solution (HBSS; Life Technologies, Grand Island, N.Y., USA) containing sodium bicarbonate (SIGMA), penicillin-streptomycin (Life Technologies), and 4-(2-hydroxyethyl)-1-piperazineethanesulfonic acid (HEPES; Life Technologies). Brain tissues were dissected under a Leica M651 light microscope (Buffalo Grove, Ill., USA), and placed in a 1.5 mL tube containing ˜1 mL prepared HBSS. Tissues were minced and transferred to a 15 mL conical tube. Cells were spun 5 min/200 g/4° C. Supernatant was aspirated, cells resuspended in 2 mL trypsin solution, and incubated 8 min at 37° C. with gentle mixing. Trypsin activity was quenched in 10 mL Neurobasal/B27 (Life Technologies) containing 10% fetal bovine serum (FBS; Thermo Fisher Scientific, Pittsburgh, Pa., USA). Cells were transferred into a new 15 mL conical tube and spun 5 min/200 g/4° C. Supernatant was replaced with 1.5 mL trituration media. Cells were dissociated by 10 passages through a fire-polished glass Pasteur pipette. The cell pellet was resuspended in plating media warmed to 37° C. (Neurobasal Media/B27 supplement prepared+25 μM L-Glutamic Acid+Pen-Strep). Cell number was quantified by automatic counting on a Cellometer (Nexcelom Bioscience, Lawrence, Mass., USA). Cells were seeded onto 6-well culture plates coated with poly-D-lysine (density ˜1.2-1.5×10^6/well). Cultures were maintained by half media replacement every ˜3-4 days in vitro (DIV). The mitotic inhibitor cytosine β-D-arabinofuranoside hydrochloride (ARA-C; 4 μM final concentration) was added in study 1 experiment (e.g. DIV10-11 cultures) to ensure purity of neuronal biochemistry for initial assessment of temperature treatments. Mitotic inhibitors at low levels are non-toxic but still potentially represent a mild stressor (though necessary to guarantee neuron purity) (Ahlemeyer B, et al., (2003) Cytosine arabinofuranoside-induced activation of astrocytes increases the susceptibility of neurons to glutamate due to the release of soluble factors. Neurochem Int 42:567-581). Results of temperature treatments were confirmed in younger DIV6 neurons in the absence of ARA-C (neuron enriched cultures; >90% neurons). Astrocytes were allowed to proliferate in aged cultures, which were not treated with ARA-C. It was observed that astrocytes are necessary for long-term survival of neuron cultures (i.e. DIV26 mature neuron cultures).
Hypothermia Protocols: Neurons were maintained in a 37° C. (normothermic) incubator. Before start of hypothermia, two identical incubators of the same make/model with humidity of ˜95% (all in the same room) were programmed to 36° C. and 33° C. Incubators were allowed a minimum of 48 h equilibration time prior to starting hypothermic experiments. In some experiments, as an additional control, a thermometer was placed inside hypothermic incubators as a secondary gauge of temperature. Temperature as assessed by that approach was independently confirmed to never be under target temperature and fluctuate by no more than ˜0.5° C. On DIV of interest, culture plates were assigned to one of the three experimental temperatures for 24 or 48 h.
Drug Treatments: Drugs were prepared in DMSO or PBS (i.e. for FGF21). All drugs were diluted in conditioned culture media and applied for 24 h. Controls received equal amounts of DMSO/PBS without drugs. Primary neurons were harvested for biochemistry at key time points. RBM3 and CIRBP levels were measured by Western blot. Investigators were not blinded to temperature treatment groups.
Western Blot. […]

A further data set has as its system RBM3 mRNA. The conditions noted are these: mouse liver, microarray; cited from earlier work.
The subject of data set [4] is RBM3. The data set can be described thus: RBM3 protein levels by Western blot in drug-treated primary cortical neurons at 37° C. or 36° C. The conditions noted are these: mature DIV26 neurons, 48 h at 36° C., drug combinations; melatonin 100 μM, T090 1 μM. The format is cell-based, rat.
Data set [5] deals with piglet model of perinatal ischemic brain injury. The settings on record: hypothermia 33.5° C.; cited from earlier work.
In another data set the test system is AKT/ERK. Description: AKT/ERK phosphorylation by Western blot in FGF21-treated neurons. It is filed as cell-based, rat. The conditions noted are these: neurons at 37° C., 24 h later. The procedure:
Primary Cortical Neuron Culture. Embryos (mixed gender) were isolated from timed pregnant (E16-17) Sprague Dawley rats. Neuron cultures were performed as previously described (Jackson TC, et al. (2013) Pharmacological inhibition of pleckstrin homology domain leucine-rich repeat protein phosphatase is neuroprotective: differential effects on astrocytes. J Pharmacol Exp Ther 347:516-528). Cortices were dissected in ice-cold Hanks balanced salt solution (HBSS; Life Technologies, Grand Island, N.Y., USA) containing sodium bicarbonate (SIGMA), penicillin-streptomycin (Life Technologies), and 4-(2-hydroxyethyl)-1-piperazineethanesulfonic acid (HEPES; Life Technologies). Brain tissues were dissected under a Leica M651 light microscope (Buffalo Grove, Ill., USA), and placed in a 1.5 mL tube containing ˜1 mL prepared HBSS. Tissues were minced and transferred to a 15 mL conical tube. Cells were spun 5 min/200 g/4° C. Supernatant was aspirated, cells resuspended in 2 mL trypsin solution, and incubated 8 min at 37° C. with gentle mixing. […] Cell number was quantified by automatic counting on a Cellometer (Nexcelom Bioscience, Lawrence, Mass., USA). […]
Drug Treatments: Drugs were prepared in DMSO or PBS (i.e. for FGF21). […] RBM3 and CIRBP levels were measured by Western blot. […]
Western Blot. […] Protein concentration was determined using the BCA assay (Thermo Scientific-PIERCE). […]
A general note: A western blot detects proteins with antibodies after separation by electrophoresis.

Another data set has as its system PND17 rats given CCI. Description: PND17 CCI with TH/TTM ± FGF21 (MWM behavior, cell death histology). It is filed as in vivo, rat. The conditions noted are these: 1 mg/kg FGF21 IV at start and end of TH/TTM. How it is done:
TTM and TH. PND17 and 12 wk adult Sprague Dawley rats receive external cooling. Endogenous RBM3/β-Klotho levels is compared in male and female rats. The TTM group is cooled to 36° C. within ˜5 min then maintained to target temperature for 7 h: 25 min. The TH group is cooled to 33° C. over ˜1 h then to target temperature for 3 h: 15 min then rewarmed at a rate of 1° C./hr. Time spent<37° C. is equal in all groups (8 h: 30 mins). FIGS. 11A, 11B, 12A, and 12B illustrate exemplary protocols for these groups.
PND17 CCI. Rats are given CCI in Aim 271, 72. Isoflurane anesthetized ˜35 g PND17 rats are craniotomized at the left parietal cortex and injured by pneumatic impactor (velocity, 4 m/s; depth, 2.5 mm). Randomization is by (A) temperature (37° C., 36° C., 33° C.), and (B)±CCI±1 mg/kg FGF21 or PBS vehicle. Two bolus IV injections of drug will be given—at the start and end of TH/TTM. Technicians are blind to treatments.
MWM Behavior. Rats are given MWM testing 73, 74. […] Motor skill is assessed measuring swim speed proving cognitive performance is not confounded by motor deficits.
Cell Death. […] Surviving CA1/CA3 cells are counted in H & E stained brain sections 7 d post-injury by unbiased stereology. 21 d contusion volume is measured after MWM in separate rats […]

Where [6] appears, read: young DIV6 neurons at 37° C., same concentrations.
[7] abbreviates: young DIV6 neurons cooled to 36° C., 5 nM FGF21, 100 μM melatonin, 1 μM T090, 5 μM SRT1720, 1 μM AZD1080.

“Also recorded” adds a separate entry of the source.

Take `Nc1ncnc2c1ncn2[C@@H]1O[C@H](COP(=O)(O)O)[C@@H](O)[C@H]1O` [5-AMP, adenosine monophosphate]: the body temperature entry in data set [1] is given as “chemically induce hypothermia”. The side effects result in data set [2] is “profound hypotension and hyperglycemia”.
Turning to `N#Cc1ccc2[nH]c(O)c(-c3ccc(CN4CCOCC4)cn3)c2c1` [AZD1080], the RBM3 levels entry in the data set with RBM3 [3] (setting [6]) and in the data set on RBM3 [3] (setting [7]) was “Neither SRT1720 (Sirtuin antagonist) nor AZD1080 (GSK-3β antagonist) increased RBM3 levels; also recorded: did not affect RBM3 levels” in each case.
In the case of `O=C(Nc1ccccc1-c1cn2c(CN3CCNCC3)csc2n1)c1cnc2ccccc2n1` [SRT1720], the RBM3 levels result in the data set with RBM3 [3] (setting [6]) and with RBM3 [3] (setting [7]) was “Neither SRT1720 (Sirtuin antagonist) nor AZD1080 (GSK-3β antagonist) increased RBM3 levels; also recorded: did not affect RBM3 levels” throughout.
With `O=S(=O)(c1ccccc1)N(CC(F)(F)F)c1ccc(C(O)(C(F)(F)F)C(F)(F)F)cc1` [T090], in the data set with RBM3 mRNA, the “RBM3 mRNA” value was “upregulate RBM3 mRNA”. In addition, the RBM3 induction result in the data set with RBM3 [4] is “failed to do so”. Besides, the RBM3 protein expression result in the data set on RBM3 [3] is “minor effects on RBM3 protein expression”. The RBM3 levels entry with RBM3 [3] (setting [6]) is reported as “mildly increased RBM3 levels”; in the data set on RBM3 [3] (young DIV6 neurons at 37° C., same concentrations, listed as T0901317) it was “mildly induced RBM3”; with RBM3 [3] (setting [7]) it was “mildly increased RBM3 levels”; in the data set on RBM3 [3] (young DIV6 neurons cooled to 36° C., 5 nM FGF21, 100 μM melatonin, 1 μM T090, 5 μM SRT1720, 1 μM AZD1080, listed as T0901317) it was “augmented RBM3 upregulation; also recorded: mildly induced RBM3”.
Regarding `COc1ccc2[nH]cc(CCNC(C)=O)c2c1` [melatonin], the hypothermia induced neuroprotection result in data set [5] is “augments hypothermia (33.5° C.) induced neuroprotection”. Also, in the data set on RBM3 [4], the RBM3 induction result is listed as “failed to do so”. In addition, the RBM3 protein expression result in the data set on RBM3 [3] is “minor effects on RBM3 protein expression”. The RBM3 levels result in the data set on RBM3 [3] (setting [6]) is “failed to do so”; with RBM3 [3] (setting [7]) it was “augmented RBM3 upregulation; also recorded: augmented RBM3 levels; also recorded: increased hypothermia-induced RBM3”; with RBM3 [3] (young DIV6 neurons cooled to 36° C., 5 nM FGF21, 100 μM melatonin, 1 μM T090, 5 μM SRT1720, 1 μM AZD1080, listed as Melatonin) it was “augment RBM3 induction”.

B1: FGF21: Fibroblast growth factor 21 protein, purchased from R&D Systems (protein, UniProt Q9NSA1 29-209, looked up)
Fibroblast growth factor 21: HPIPDSSPLLQFGGQVRQRYLYTDDAQQTEAHLEIREDGTVGGAADQSPESLLQLKALKPGVIQILGVKTSRFLCQRPDGALYGSLHFDPEACSFRELLLEDGYNVYQSEAHGLPLHLPGNKSPHRDPAPRGPARFLPLPGLPPALPEPPGILAPQPPDVGSSDPLSMVGPSQGRSPSYAS
Take B1: the AKT/ERK phosphorylation result in the data set with AKT/ERK is “decreased”. Further, the “TH/TTM induced neuroprotection after a CCI” value in the data set on PND17 rats given CCI is “augments TH/TTM induced neuroprotection”. Besides, the RBM3 induction entry in the data set on RBM3 [4] is recorded as “failed to do so”. For the same molecule, the body temperature result in data set [1] was “slight body temperature reduction”. The “RBM3 levels above baseline” value in the data set with RBM3 [3] (DIV7 neurons cultured at 36° C., 24 h, dose effect) is “increased RBM3 above baseline in a bi-phasic manner”. Besides, the RBM3 protein expression entry in the data set with RBM3 [3] is “minor effects on RBM3 protein expression”. The results for the RBM3 levels entry in the data set with RBM3 [3] (setting [6]) and in the data set with RBM3 [3] (setting [7]) were “failed to do so” and “augment RBM3 induction; also recorded: induces RBM3; also recorded: augments RBM3; also recorded: augmented RBM3 upregulation; also recorded: augmented RBM3 levels; also recorded: increased hypothermia-induced RBM3”, respectively.
